# Where two headings read alike, the source gives them in different places.
# What was measured:
# [1] = test system: HIV-1/TIBO R82913 (103-Asn); assay: Sensitivity of mutant HIV-1 strain in CEM cell cultures; format: cell-based; conditions: Human immunodeficiency virus 1, CCRF-CEM; CEM cells, Table 1; read-out: 50% Effective Concentration
# Procedure: (§1) CEM cells were suspended at 250,000 cells per ml of culture medium and infected with wild-type HIV-I(IIIB) or mutant HIV-1 strains at 100 50% cell culture infective doses per ml. Then 100 μl of the infected cell suspensions was added to 200-μl microtiter plate wells containing 100 μl of an appropriate dilution of the test compounds. After 4 days incubation at 37° C., the cell cultures were examined for syncytium formation.
# HIV-1/Nev (106-Ala) = assay: as above; format: cell-based; conditions: Human immunodeficiency virus 1, CCRF-CEM; CEM cells, Table 1; read-out: 50% Effective Concentration
# Procedure: as §1
# HIV-1/Pyr (181-Cys) = assay: as above; format: cell-based; conditions: Human immunodeficiency virus 1, CCRF-CEM; CEM cells, Table 1; read-out: 50% Effective Concentration
# Procedure: as §1
# [2] = test system: HIV-1/TIBO R82150 (100-Ile); assay: as above; format: cell-based; conditions: Human immunodeficiency virus 1, CCRF-CEM; CEM cells, Table 1; read-out: 50% Effective Concentration
# Procedure: as §1
# [3] = test system: HIV-1/TSAO-m^3 T (138-Lys); assay: as above; format: cell-based; conditions: Human immunodeficiency virus 1, CCRF-CEM; CEM cells, Table 1; read-out: 50% Effective Concentration
# Procedure: as §1
# HIV-1(IIIB) (WT) = assay: microbe, parasite or virus in culture; format: cell-based; conditions: Human immunodeficiency virus 1, IIIB, CCRF-CEM; CEM cells, Table 1; read-out: 50% Effective Concentration
# Procedure: as §1
# HIV-1 RT (WT) = HIV-1 RT (WT) (Human immunodeficiency virus type 1 group M subtype B, UniProt P03366); assay: biochemical; conditions: substrate [2,8-3H]dGTP 2.95 μM, template poly(rC)oligo(dG); read-out: IC50, anti-HIV-1 RT (WT) activity (converted)
# Procedure: The reaction mixture (50 μl) contained 50 mM Tris.HCl, pH 7.8, 5 mM dithiothreitol, […] glutathione, 500 μM EDTA, 150 mM KCl, 5 mM MgCl2, 1.25 μg of bovine serum albumin, a fixed concentration of the labeled substrate [2,8-^3 H]dGTP (2.95 μM, 2 μCi), a fixed concentration of the template/primer poly(C).oligo(dG) (0.1 mM), 0.06% Triton X-100, 5 μl of inhibitor solution [containing various concentrations (5-fold dilutions) of the test compounds], and 5 μl of the RT preparation. The reaction mixtures were incubated at 37° C. for 30 min, at which time 100 μl of calf thymus DNA (150 μg/ml), 2 ml of Na4 P2 07 (0.1 M in 1M HCl), and 2 ml of trichloroacetic acid (10%, v/v) were added. The solutions were kept on ice for 30 min, after which the acid-insoluble material was washed and analyzed for radioactivity.
# Compounds I, III, IV and V were evaluated for their inhibitory effect on recombinant HIV-1 RT.
# HIV-1(IIIB) = assay: Knock-out concentrations: breakthrough of HIV-1(IIIB)-induced cytopathicity in CEM cell cultures; format: cell-based; conditions: Human immunodeficiency virus 1, IIIB, CCRF-CEM, read-out: HIV-1-induced cytopathicity in cell culture; for activity at 0.1 µg/mL: 0.1 μg/ml; for activity at 0.5 µg/mL: 0.5 μg/ml; for activity at 2.5 µg/mL: 2.5 μg/ml
# Procedure: The culture medium consisted of RPMI 1640 containing 10% fetal bovine serum, 2 mM L-glutamine, and 0.075% NaHCO3. The multiplicity of the initial infection was ~1000 times the CCID50 (50% cell culture infective dose). Passages were performed every 3 to 4 days by adding 0.5 to 1.0 ml of the infected culture supernatant to 5 ml of a suspension containing 4×10^5 uninfected CEM cells per ml. Syncytium formation was used as a parameter of virus breakthrough in the cell cultures. In the drug combination experiments, the compounds were combined at the same initial concentrations as used for the two lowest concentrations in the single-drug experiments.
# The drug concentrations were kept constant throughout the whole time period of the experiment (10 subcultivations or 35 days). Then the drugs were removed from the cell cultures, and the cells were further subcultured for at least 5 additional passages.
# [4] = 936 h, day 39 post infection, compound absent from day 35
# [5] = 1008 h, day 42 post infection, compound absent from day 35
# [6] = 1104 h, day 46 post infection, compound absent from day 35
# [7] = 1176 h, day 49 post infection, compound absent from day 35
# [8] = 1272 h, day 53 post infection, compound absent from day 35
smiles,measurement,setting,value
"CC(C)Nc1cccnc1N1CCN(C(=O)c2cc3ccccc3[nH]2)CC1 [BHAP U88204, reference compound]",EC50,[1],1.7 µg/mL
same,EC50,HIV-1/Nev (106-Ala),0.4 µg/mL
same,EC50,HIV-1/Pyr (181-Cys),0.4 µg/mL
same,EC50,[2],0.75 µg/mL
same,EC50,[3],0.07 µg/mL
same,EC50,HIV-1(IIIB) (WT),0.04 µg/mL
same,IC50,HIV-1 RT (WT),1210 nM
same,activity at 0.1 µg/mL,"HIV-1(IIIB); 96 h, day 4 post infection",0%
same,activity at 0.5 µg/mL,"HIV-1(IIIB); 96 h, day 4 post infection",0%
same,activity at 2.5 µg/mL,"HIV-1(IIIB); 96 h, day 4 post infection",0%
same,activity at 0.1 µg/mL,"HIV-1(IIIB); 192 h, day 8 post infection",12.5%
same,activity at 0.5 µg/mL,"HIV-1(IIIB); 192 h, day 8 post infection",0%
same,activity at 2.5 µg/mL,"HIV-1(IIIB); 192 h, day 8 post infection",0%
same,activity at 0.1 µg/mL,"HIV-1(IIIB); 264 h, day 11 post infection",50%
same,activity at 0.5 µg/mL,"HIV-1(IIIB); 264 h, day 11 post infection",6.25%
same,activity at 2.5 µg/mL,"HIV-1(IIIB); 264 h, day 11 post infection",0%
same,activity at 0.1 µg/mL,"HIV-1(IIIB); 336 h, day 14 post infection",100%
same,activity at 0.5 µg/mL,"HIV-1(IIIB); 336 h, day 14 post infection",6.25%
same,activity at 2.5 µg/mL,"HIV-1(IIIB); 336 h, day 14 post infection",0%
same,activity at 0.1 µg/mL,"HIV-1(IIIB); 408 h, day 17 post infection",100%
same,activity at 0.5 µg/mL,"HIV-1(IIIB); 408 h, day 17 post infection",25%
same,activity at 2.5 µg/mL,"HIV-1(IIIB); 408 h, day 17 post infection",0%
same,activity at 0.1 µg/mL,"HIV-1(IIIB); 504 h, day 21 post infection",100%
same,activity at 0.5 µg/mL,"HIV-1(IIIB); 504 h, day 21 post infection",75%
same,activity at 2.5 µg/mL,"HIV-1(IIIB); 504 h, day 21 post infection",0%
same,activity at 0.1 µg/mL,"HIV-1(IIIB); 600 h, day 25 post infection",100%
same,activity at 0.5 µg/mL,"HIV-1(IIIB); 600 h, day 25 post infection",87.5%
same,activity at 2.5 µg/mL,"HIV-1(IIIB); 600 h, day 25 post infection",0%
same,activity at 0.1 µg/mL,"HIV-1(IIIB); 672 h, day 28 post infection",100%
same,activity at 0.5 µg/mL,"HIV-1(IIIB); 672 h, day 28 post infection",100%
same,activity at 2.5 µg/mL,"HIV-1(IIIB); 672 h, day 28 post infection",0%
same,activity at 0.1 µg/mL,"HIV-1(IIIB); 768 h, day 32 post infection",100%
same,activity at 0.5 µg/mL,"HIV-1(IIIB); 768 h, day 32 post infection",100%
same,activity at 2.5 µg/mL,"HIV-1(IIIB); 768 h, day 32 post infection",0%
same,activity at 0.1 µg/mL,"HIV-1(IIIB); 840 h, day 35 post infection",100%
same,activity at 0.5 µg/mL,"HIV-1(IIIB); 840 h, day 35 post infection",100%
same,activity at 2.5 µg/mL,"HIV-1(IIIB); 840 h, day 35 post infection",0%
same,activity at 0.1 µg/mL,HIV-1(IIIB); [4],100%
same,activity at 0.5 µg/mL,HIV-1(IIIB); [4],100%
same,activity at 2.5 µg/mL,HIV-1(IIIB); [4],0%
same,activity at 0.1 µg/mL,HIV-1(IIIB); [5],100%
same,activity at 0.5 µg/mL,HIV-1(IIIB); [5],100%
same,activity at 2.5 µg/mL,HIV-1(IIIB); [5],0%
same,activity at 0.1 µg/mL,HIV-1(IIIB); [6],100%
same,activity at 0.5 µg/mL,HIV-1(IIIB); [6],100%
same,activity at 2.5 µg/mL,HIV-1(IIIB); [6],0%
same,activity at 0.1 µg/mL,HIV-1(IIIB); [7],100%
same,activity at 0.5 µg/mL,HIV-1(IIIB); [7],100%
same,activity at 2.5 µg/mL,HIV-1(IIIB); [7],0%
same,activity at 0.1 µg/mL,HIV-1(IIIB); [8],100%
same,activity at 0.5 µg/mL,HIV-1(IIIB); [8],100%
same,activity at 2.5 µg/mL,HIV-1(IIIB); [8],0%
